Reference: PubChem BioAssay (NCI)
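Assay format: 96-well plates, 48-hour exposure. GI50 marks 50% less growth. TGI denotes the concentration required for complete inhibition of growth.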

What was measured:
Assay in all cases: inhibition of tumour cell growth, NCI panel, 48 h
HOP-62 NSCLC = test system: HOP-62 NSCLC
HS 578T breast = test system: HS 578T breast
HT29 colon = test system: HT29 colon
IGROV1 ovarian = test system: IGROV1 ovarian
MDA-MB-435 = test system: MDA-MB-435
NCI-H23 lung = test system: NCI-H23 lung
NCI-H522 lung = test system: NCI-H522 lung
RPMI-8226 leukemia = test system: RPMI-8226 leukemia
SK-MEL-2 melanoma = test system: SK-MEL-2 melanoma
SK-MEL-5 melanoma = test system: SK-MEL-5 melanoma

Structure (SMILES) | GI50 (HOP-62 NSCLC) [µM] | TGI (HOP-62 NSCLC) [µM] | GI50 (HS 578T breast) [µM] | TGI (HS 578T breast) [µM] | GI50 (HT29 colon) [µM] | TGI (HT29 colon) [µM] | GI50 (IGROV1 ovarian) [µM] | TGI (IGROV1 ovarian) [µM] | GI50 (MDA-MB-435) [µM] | TGI (MDA-MB-435) [µM] | GI50 (NCI-H23 lung) [µM] | TGI (NCI-H23 lung) [µM] | GI50 (NCI-H522 lung) [µM] | TGI (NCI-H522 lung) [µM] | GI50 (RPMI-8226 leukemia) [µM] | TGI (RPMI-8226 leukemia) [µM] | GI50 (SK-MEL-2 melanoma) [µM] | TGI (SK-MEL-2 melanoma) [µM] | GI50 (SK-MEL-5 melanoma) [µM] | TGI (SK-MEL-5 melanoma) [µM]
O=C(N/N=C/c1cccc(O)c1O)c1ccccc1 | 1.52 | > 100 | 10.5 | > 100 | 4.9 | > 100 | 3.49 | > 100 | 1.88 | > 100 | 0.992 | > 100 | 0.323 | 2.25 | 1.3 | > 100 | 11.7 | > 100 | 0.626 | > 22.7
O=C(CCl)Nc1ccc(Cl)cc1 | 2.01 | 3.91 | 3.96 | 42.4 | 2.03 | 4.26 | 2.11 | 5.04 | 4.4 | 20.4 | 3.29 | 14.3 | 1.48 | 3.01 | 3.14 | 9.45 | 2.51 | 6.16 | 1.71 | 3.16
NC(=S)N/N=C/c1ccc(OC(=O)COc2ccc(Cl)cc2)cn1 | 14.6 | 91.1 | 2.86 | > 100 | 7.19 | > 100 | 16.4 | > 100 | 5.89 | > 100 | 3.67 | > 100 | 0.718 | 40 | 7.31 | > 100 | 9.69 | > 100 | 3.24 | 23.6
CCS(=O)(=O)c1ccc(OC)c(Nc2ncc(-c3cccc(C(C)=O)c3)o2)c1 | > 25 | > 25 | 5.88 | > 25 | > 25 | > 25 | 5.47 | 16.1 | > 25 | > 25 | > 25 | > 25 | 11 | > 25 | > 25 | > 25 | > 25 | > 25 | > 25 | > 25
COC(=O)Nc1nc2ccc(Oc3ccc(NC(=O)Nc4ccccc4)cc3)cc2[nH]1 | 0.109 | 2.52 | 0.0921 | 4.45 | 0.0937 | 1.01 | 0.665 | > 10.9 | 0.0474 | 0.12 | 0.545 | > 12.3 | 0.0686 | 0.667 | 0.748 | > 10 | 0.109 | 2.19 | 0.0702 | 1.18
CC/C=C\C[C@@H]1C/C=C2/C(=O)C=C[C@H]2C/C=C\CCCC(=O)O1 | 1.07 | 3.68 | 2.84 | 9.11 | 0.267 | 0.677 | 0.91 | 3.93 | 0.25 | 0.845 | 0.993 | 3.2 | 0.231 | 0.737 | 0.331 | 1.33 | 1.8 | 4.23 | 0.348 | 1.43
CCCCN=C(N)c1ccc(OCCSCCOc2ccc(C(N)=NCCCC)cc2)cc1 | 12.1 | > 100 | 34.2 | > 100 | 2.79 | > 100 | 16.4 | > 100 | 3.35 | > 100 | 2.87 | > 100 | 2.25 | 12.8 | 2.71 | 53.4 | 5.36 | 21.9 | 1.28 | 14.4
Clc1nc(Cl)c2ncn(Cc3cccc(COc4cccc(OCc5cccc(Cn6cnc7c(Cl)nc(Cl)nc76)c5)c4)c3)c2n1 | 58.2 | > 100 | > 100 | > 100 | > 100 | > 100 | 60.8 | > 100 | 13.8 | > 100 | 54.5 | > 100 | 41.1 | > 100 | 2.61 | 54.8 | 17.1 | > 100 | 9.76 | 46.1
CCN(CC)CCCC(C)Nc1c(C)cnc2cc(Cl)c(C)cc12 (stereo not given) | 18.2 | 32.9 | 19.1 | 45.2 | 2.72 | > 24.8 | 25.9 | 74.7 | 7.8 | 20.1 | 11.5 | 23.9 | 23 | 53.1 | 2.38 | 9.82 | 20.4 | > 70.6 | 3.92 | 13.3
c1ccc(C2=NNC3c4ccccc4-c4ccccc4N3C2)cc1 (stereo not given) |  | > 100 |  | > 100 |  | > 100 |  | > 100 |  | 68.1 |  | 67.8 |  | 80.3 |  | 57.8 |  | 45.8 |  | 29.4
Cc1ccc(C(=NN=C(N)N)c2ccc(C)cc2)cc1 | 1.21 | 12.5 | 0.424 | 3.69 | 0.316 | 1.17 | 0.644 | 7.64 | 0.199 | 0.471 | 0.98 | 8.66 | 0.335 | 1.19 | 1.07 | 4.87 | 0.78 | 2.94 | 0.427 | 1.5
COc1ccc(C(=O)COc2cccc(/C=C3\COc4ccc5ccccc5c4C3=O)c2)cc1 | 29.7 | > 100 | 4.93 | > 100 | 6.08 | > 100 | 17.4 | > 100 | 4.08 | 41.3 | 5.17 | > 100 | 8.13 | > 100 | 1.15 | 3.94 | 5.83 | > 100 | 5.58 | > 100
CC(=O)OC1Oc2ccccc2-c2oc(=O)c(-c3cc4ccc(N(C)C)cc4oc3=O)cc21 (stereo not given) | 4.63 | 25.4 | 4.56 | 26.1 | 22 | > 100 | 14.6 | 36.9 | 13.3 | 46.8 | 10.6 | 23.7 | 11.9 | 30.6 | 0.392 | 15 | 8.61 | 29.9 | 3.46 | 15.4
CC1CN1CC(O)C(O)CN1CC1C (stereo not given) | 2.89 | > 71.9 | 11.3 | 57.4 | 2.87 | 19.7 | 4.09 | 42.2 | 4.93 | 24.8 | 2.37 | > 75.4 | 1.72 | 7.08 | 8.86 | > 88.6 | 8.58 | > 64.2 | 3.3 | 14.8
CC(C)c1ccc(C(=O)Nc2sc3c(c2C(N)=O)CCC(=O)C3)cc1 | 3.04 | 18.1 | 0.534 | 5.27 | 0.484 | 5.34 | 0.491 | 2.14 | 1.49 | 3.62 | 0.381 | 2.45 | 0.316 | 1.56 | 0.127 | 0.691 | 2.16 | 5.25 | 1.14 | 2.56
O=C1c2ccccc2-c2c1c1ccccc1c(=O)n2Cc1ccccc1 |  | > 100 |  | > 100 |  | > 100 |  | > 100 |  | > 100 |  | > 100 |  | > 100 |  | > 100 |  | > 100 |  | > 100
CCc1[nH]c(=O)nc(N)c1-c1ccc(N2CCCCC2)c([N+](=O)[O-])c1 |  | > 100 |  | > 100 |  | > 100 |  | > 100 |  | > 100 |  | > 100 |  | > 100 |  | > 100 |  | > 100 |  | > 100
